Literature values as cited in patent US20170224835A1, “Antibody Drug Conjugates” (priority 2015, published 2017).
Read-outs that look alike come from different tables or passages of the source.

What was measured:
[1] = in vitro

Row | SMILES | cytotoxicity / cell killing compared with other anthracyclines [1] | efficacy in in vivo tumor models (in vivo tumor models) | cytotoxicity / cell killing compared with other anthracyclines ([1]; listed as PNU (159682))
1 | COc1cccc2c1C(=O)c1c(O)c3c(c(O)c1C2=O)C[C@@](O)(C(=O)CO)C[C@@H]3O[C@H]1C[C@H](N2CCO[C@H](OC)C2)[C@H](O)[C@H](C)O1 [Nemorubicin, (8S,10S)-6,8,11-trihydroxy-10-((2R,4S,5S,6S)-5-hydroxy-4-((S)-2-methoxymorpholino)-6-methyltetrahydro-2H-pyran-2-yloxy)-8-(2-hydroxyacetyl)-1-methoxy-7,8,9,10-tetrahydrotetracene-5,12-dione] | more potent cell killing property | – | –
2 | COc1cccc2c1C(=O)c1c(O)c3c(c(O)c1C2=O)C[C@@](O)(C(=O)CO)C[C@@H]3O[C@H]1C[C@H]2[C@H](O[C@@H]3[C@@H](OC)OCCN32)[C@H](C)O1 [PNU-159682, 3′-deamino-3″,4′-anhydro-[2″(S)-methoxy-3″(R)-oxy-4″-morpholinyl]doxorubicin] | significantly more cytotoxic than Nemorubicin | effective | more cytotoxic than nemorubicin and doxorubicin
